# Experimental data taken from patent US9920090B2, “Betulinic acid derivatives with HIV maturation inhibitory activity” (priority 2014, dated 2018).
# Tested on: recombinant NL4-3 virus (nef section replaced with Renilla luciferase gene, Gag P373S)
# Assay: HIV Cell Culture Assay (luciferase reporter virus in MT-2 cells)
# Format: cell-based
# Conditions: NL43
# Procedure: MT-2 cells and 293T cells were obtained from the NIH AIDS Research and Reference Reagent Program. MT-2 cells were propagated in RPMI 1640 media supplemented with 10% heat inactivated fetal bovine serum, […]. The 293T cells were propagated in DMEM media supplemented with 10% heat inactivated fetal bovine serum (FBS), 100 units/mL penicillin G and 100 μg/mL streptomycin. The proviral DNA clone of NL4-3 was obtained from the NIH AIDS Research and Reference Reagent Program. A recombinant NL4-3 virus, in which a section of the nef gene from NL4-3 was replaced with the Renilla luciferase gene, was used as a reference virus. In addition, residue Gag P373 was converted to P373S. Briefly, the recombinant virus was prepared by transfection of the altered proviral clone of NL4-3. Transfections were performed in 293T cells using LipofectAMINE PLUS from Invitrogen (Carlsbad, Calif.), according to manufacturer's instruction. The virus was titered in MT-2 cells using luciferase enzyme activity as a marker. Luciferase was quantitated using the Dual Luciferase kit from Promega (Madison, Wis.), with modifications to the manufacturer's protocol. The diluted Passive Lysis solution was pre-mixed with the re-suspended Luciferase Assay Reagent and the re-suspended Stop & Glo Substrate (2:1:1 ratio). Fifty (50) μL of the mixture was added to each aspirated well on assay plates and luciferase activity was measured immediately on a Wallac TriLux (Perkin-Elmer). Antiviral activities of inhibitors toward the recombinant virus were quantified by measuring luciferase activity in cells infected for 4-5 days with NLRluc recombinants in the presence serial dilutions of the inhibitor.
row,Compound,EC50 [µM]
1,"C=C(C)[C@@H]1CC[C@]2(NCCN3CCS(=O)(=O)CC3)C[C@H](O)[C@]3(C)[C@H](CC[C@@H]4[C@@]5(C)CC=C(c6ccc(C(=O)O)cc6)C(C)(C)[C@@H]5C[C@H](O)[C@]43C)[C@@H]12 [Example 3, 4-((1R,3aS,5S,5aR,5bR,6S,7aR,11aS,11bR,13aR,13bR)-3a-((2-(1,1-dioxidothiomorpholino)ethyl)amino)-5,6-dihydroxy-5a,5b,8,8,11a-pentamethyl-1-(prop-1-en-2-yl)-2,3,3a,4,5,5a,5b,6,7,7a,8,11,11a,11b,12,13,13a,13b-octadecahydro-1H-cyclopenta[a]chrysen-9-yl)benzoic acid]",0.017
2,"C=C(C)[C@@H]1CC[C@]2(C(=O)O)C[C@@H]3OC(C)(C)O[C@H]4C[C@H]5C(C)(C)C(c6ccc(C(=O)O)cc6)=CC[C@]5(C)[C@H]5CC[C@H]([C@@H]12)[C@]3(C)[C@]45C [Example 1, (1R,3aS,4aS,4a1R,7aS,7a1R,8aR,12aS,12bR,14aR,14bR)-10-(4-carboxyphenyl)-4a1,6,6,7a1,9,9,12a-heptamethyl-1-(prop-1-en-2-yl)-2,3,3a,4,4a,4a1,7a,7a1,8,8a,9,12,12a,12b,13,14,14a,14b-octadecahydro-1H-cyclopenta[1,2]chryseno[4,5-def][1,3]dioxepine-3a-carboxylic acid]",0.04
3,"CC(C)[C@@H]1CC[C@]2(C(=O)O)CC[C@]3(C)[C@H](CC[C@@H]4[C@@]5(C)C[C@@H]6O[C@]6(c6ccc(C(=O)O)cc6)C(C)(C)[C@@H]5CC[C@]43C)[C@@H]12 [Example 11, (1S,3aS,5aR,5bR,7aR,8aS,9aS,10aR,10bR,12aR,12bR)-8a-(4-carboxyphenyl)-1-isopropyl-5a,5b,8,8,10a-pentamethylicosahydro-1H-cyclopenta[7,8]chryseno[2,3-b]oxirene-3a-carboxylic acid]",1.31
4,"CC(C)[C@@H]1CC[C@]2(N)CC[C@]3(C)[C@H](CC[C@@H]4[C@@]5(C)C(=O)C=C(c6ccc(C(=O)O)cc6)C(C)(C)[C@@H]5CC[C@]43C)[C@@H]12 [Example 9, 4-((1S,3aS,5aR,5bR,7aS,11aS,11bS,13aR,13bR)-3a-amino-1-isopropyl-5a,5b,8,8,11a-pentamethyl-11-oxo-2,3,3a,4,5,5a,5b,6,7,7a,8,11,11a,11b,12,13,13a,13b-octadecahydro-1H-cyclopenta[a]chrysen-9-yl)benzoic acid]",0.0012
5,"CC(C)[C@@H]1CC[C@]2(C(=O)O)CC[C@]3(C)[C@H](CC[C@@H]4[C@@]5(C)[C@H](O)C=C(c6ccc(C(=O)O)cc6)C(C)(C)[C@@H]5CC[C@]43C)[C@@H]12 [Example 6, (1S,3aS,5aR,5bR,7aS,11R,11aS,11bS,13aR,13bR)-9-(4-carboxyphenyl)-11-hydroxy-1-isopropyl-5a,5b,8,8,11a-pentamethyl-2,3,3a,4,5,5a,5b,6,7,7a,8,11,11a,11b,12,13,13a,13b-octadecahydro-1H-cyclopenta[a]chrysene-3a-carboxylic acid]",1.73
6,"CC(C)[C@@H]1CC[C@]2(NCCN3CCS(=O)(=O)CC3)CC[C@]3(C)[C@H](CC[C@@H]4[C@@]5(C)C(=O)C=C(c6ccc(C(=O)O)cc6)C(C)(C)[C@@H]5CC[C@]43C)[C@@H]12 [Example 10, 4-((1S,3aS,5aR,5bR,7aS,11aS,11bS,13aR,13bR)-3a-((2-(1,1-dioxidothiomorpholino)ethyl)amino)-1-isopropyl-5a,5b,8,8,11a-pentamethyl-11-oxo-2,3,3a,4,5,5a,5b,6,7,7a,8,11,11a,11b,12,13,13a,13b-octadecahydro-1H-cyclopenta[a]chrysen-9-yl)benzoic acid]",0.0012
7,"CC(C)[C@@H]1CC[C@]2(C(=O)O)CC[C@]3(C)[C@H](CC[C@@H]4[C@@]5(C)C(=O)C=C(c6ccc(C(=O)O)cc6)C(C)(C)[C@@H]5CC[C@]43C)[C@@H]12 [Example 4, (1S,3aS,5aR,5bR,7aS,11aS,11bS,13aR,13bR)-9-(4-carboxyphenyl)-1-isopropyl-5a,5b,8,8,11a-pentamethyl-11-oxo-2,3,3a,4,5,5a,5b,6,7,7a,8,11,11a,11b,12,13,13a,13b-octadecahydro-1H-cyclopenta[a]chrysene-3a-carboxylic acid]",0.029
8,"CC(C)[C@@H]1CC[C@]2(C(=O)NCCCN3CCS(=O)(=O)CC3)CC[C@]3(C)[C@H](CC[C@@H]4[C@@]5(C)[C@H](F)C=C(c6ccc(C(=O)O)cc6)C(C)(C)[C@@H]5CC[C@]43C)[C@@H]12 [Example 8, 4-((1S,3aS,5aR,5bR,7aS,11R,11aS,11bS,13aR,13bR)-3a-((3-(1,1-dioxidothiomorpholino)propyl)carbamoyl)-11-fluoro-1-isopropyl-5a,5b,8,8,11a-pentamethyl-2,3,3a,4,5,5a,5b,6,7,7a,8,11,11a,11b,12,13,13a,13b-octadecahydro-1H-cyclopenta[a]chrysen-9-yl)benzoic acid]",0.00331
9,"C=C(C)[C@@H]1CC[C@]2(C(=O)O)C[C@H](O)[C@]3(C)[C@H](CC[C@@H]4[C@@]5(C)CC=C(c6ccc(C(=O)O)cc6)C(C)(C)[C@@H]5C[C@H](O)[C@]43C)[C@@H]12 [Example 2, (1R,3aS,5S,5aR,5bR,6S,7aR,11aS,11bR,13aR,13bR)-9-(4-carboxyphenyl)-5,6-dihydroxy-5a,5b,8,8,11a-pentamethyl-1-(prop-1-en-2-yl)-2,3,3a,4,5,5a,5b,6,7,7a,8,11,11a,11b,12,13,13a,13b-octadecahydro-1H-cyclopenta[a]chrysene-3a-carboxylic acid]",1.56
10,"CC(C)[C@@H]1CC[C@]2(C(=O)O)CC[C@]3(C)[C@H](CC[C@@H]4[C@@]5(C)[C@@H](O)C=C(c6ccc(C(=O)O)cc6)C(C)(C)[C@@H]5CC[C@]43C)[C@@H]12 [Example 5, (1S,3aS,5aR,5bR,7aS,11S,11aS,11bS,13aR,13bR)-9-(4-carboxyphenyl)-11-hydroxy-1-isopropyl-5a,5b,8,8,11a-pentamethyl-2,3,3a,4,5,5a,5b,6,7,7a,8,11,11a,11b,12,13,13a,13b-octadecahydro-1H-cyclopenta[a]chrysene-3a-carboxylic acid]",0.41
